# Data from US11708344B2, “Flavone derivatives for the treatment and prophylaxis of hepatitis B virus disease” (Hoffmann-La Roche Inc., priority 2018, dated 2023).
# Read-outs that look alike come from different tables or passages of the source.
# Tests used:
# [1] = Human microsome stability assay; type: in vitro ADME; settings: human liver microsomes, 1 μM test compound, 0.5 mg/mL microsomal protein, 37° C., pH 7.4, 0-30 minutes
# Method: The human microsomal stability assay is used for early assessment of metabolic stability of a test compound in human liver microsomes.
# Human liver microsomes (Cat. NO.: 452117, Corning, USA; Cat. NO.: H2610, Xenotech, USA) were preincubated with test compound for 10 minutes at 37° C. in 100 mM potassium phosphate buffer, pH 7.4. The reactions were initiated by adding NADPH regenerating system. The final incubation mixtures contained 1 μM test compound, 0.5 mg/mL liver microsomal protein, 1 mM MgCl2, 1 mM NADP, 1 unit/mL isocitric dehydrogenase and 6 mM isocitric acid in 100 mM potassium phosphate buffer, pH 7.4. After incubation times of 0, 3, 6, 9, 15 and 30 minutes at 37° C., 300 μL of cold ACN (including internal standard) was added to 100 μL incubation mixture to terminate the reaction. Following precipitation and centrifugation, the amount of compound remaining in the samples was determined by LC-MS/MS. Controls of no NADPH regenerating system at zero and 30 minutes were also prepared and analyzed.
# [2] = tested on: HBeAg (surrogate marker for cccDNA) in HepDES19 cells; assay: Engineered HepDES19 primary screen assay (HBeAg ELISA); type: cell-based, HBV
# How it was run: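 IC50 values come from 4-parameter logistic fits of HBeAg ELISA signal, the cccDNA surrogate, with CCK-8 run in parallel for viability. Compounds at half-log dilutions with 1% DMSO were applied for 5 days at 37 °C to HepDES19 cells previously cultured 8 days without Tet.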
# [3] = Hepatitis B virus, HepDES19, 120 h, read-out: IC50 (HBeAg level, HepDES19 primary screen assay), HepDES19 cells, 5 days compound incubation, HBeAg ELISA
smiles,measurement,setting,value
"O=C(O)COc1cc(C(F)(F)F)ccc1-c1cc(=O)c2cccc(Cl)c2o1 [Example A051, 2-[2-(8-chloro-4-oxo-chromen-2-yl)-5-(trifluoromethyl)phenoxy]acetic acid]",Clearance of Human microsome,[1],6.15 mL/min/kg
same,IC50,[2]; [3],2.41 µM
"COc1cc(-c2cc(=O)c3cccc(Cl)c3o2)c(OCCCC(=O)O)cc1Br [Example A058, 4-[5-bromo-2-(8-chloro-4-oxo-chromen-2-yl)-4-methoxy-phenoxy]butanoic acid]",Clearance of Human microsome,[1],6.15 mL/min/kg
same,IC50,[2]; [3],0.549 µM
"Cc1ccc(-c2cc(=O)c3cccc(Cl)c3o2)c(OCCCC(=O)O)c1 [Example A059, 4-[2-(8-chloro-4-oxo-chromen-2-yl)-5-methyl-phenoxy]butanoic acid]",Clearance of Human microsome,[1],8.34 mL/min/kg
same,IC50,[2]; [3],0.622 µM
"COc1cc(OCCCC(=O)O)c(-c2cc(=O)c3cccc(Cl)c3o2)cc1C [Example A060, 4-[2-(8-chloro-4-oxo-chromen-2-yl)-5-methoxy-4-methyl-phenoxy]butanoic acid]",Clearance of Human microsome,[1],6.15 mL/min/kg
same,IC50,[2]; [3],5.36 µM
"CC(C)(COc1cc(OC(F)(F)F)ccc1-c1cc(=O)c2cccc(Cl)c2o1)C(=O)O [Example A061, 3-[2-(8-chloro-4-oxo-chromen-2-yl)-5-(trifluoromethoxy)phenoxy]-2,2-dimethyl-propanoic acid]",Clearance of Human microsome,[1],8.78 mL/min/kg
same,IC50,[2]; [3],15.9 µM
"CC(C)(COc1cc(C(F)(F)F)ccc1-c1cc(=O)c2cccc(Cl)c2o1)C(=O)O [Example A062, 3-[2-(8-chloro-4-oxo-chromen-2-yl)-5-(trifluoromethyl)phenoxy]-2,2-dimethyl-propanoic acid]",Clearance of Human microsome,[1],9.88 mL/min/kg
same,IC50,[2]; [3],13 µM
"Cc1ccc(-c2cc(=O)c3cccc(Cl)c3o2)c(OCC(C)(C)C(=O)O)c1 [Example A063, 3-[2-(8-chloro-4-oxo-chromen-2-yl)-5-methyl-phenoxy]-2,2-dimethyl-propanoic acid]",Clearance of Human microsome,[1],6.15 mL/min/kg
same,IC50,[2]; [3],1.35 µM
"Cc1cc(-c2cc(=O)c3cccc(Cl)c3o2)c(OCC(C)(C)C(=O)O)cc1Cl [Example A064, 3-[5-chloro-2-(8-chloro-4-oxo-chromen-2-yl)-4-methyl-phenoxy]-2,2-dimethyl-propanoic acid]",Clearance of Human microsome,[1],9.5 mL/min/kg
same,IC50,[2]; [3],9.59 µM
"O=C(O)CCCCOc1cc(C(F)(F)F)ccc1-c1cc(=O)c2cccc(Cl)c2o1 [Example A065, 5-[2-(8-chloro-4-oxo-chromen-2-yl)-5-(trifluoromethyl)phenoxy]pentanoic acid]",Clearance of Human microsome,[1],6.15 mL/min/kg
same,IC50,[2]; [3],1.9 µM
"COc1cc(OCC2(CC(=O)O)CC2)c(-c2cc(=O)c3cccc(Cl)c3o2)cc1OC [Example A067, 2-[1-[[2-(8-chloro-4-oxo-chromen-2-yl)-4,5-dimethoxy-phenoxy]methyl]cyclopropyl]acetic acid]",Clearance of Human microsome,[1],6.15 mL/min/kg
same,IC50,[2]; [3],1.68 µM
"O=C(O)CC1(COc2cc(Br)ccc2-c2cc(=O)c3cccc(Cl)c3o2)CC1 [Example A069, 2-[1-[[5-bromo-2-(8-chloro-4-oxo-chromen-2-yl)phenoxy]methyl]cyclopropyl]acetic acid]",Clearance of Human microsome,[1],6.15 mL/min/kg
same,IC50,[2]; [3],2.73 µM
"CC(C)(Oc1cc(Br)ccc1-c1cc(=O)c2cccc(Cl)c2o1)C(=O)O [Example A070, 2-[5-bromo-2-(8-chloro-4-oxo-chromen-2-yl)phenoxy]-2-methyl-propanoic acid]",Clearance of Human microsome,[1],6.15 mL/min/kg
same,IC50,[2]; [3],0.63 µM
"CC(C)(CCCOc1cc(OC(F)(F)F)ccc1-c1cc(=O)c2cccc(Cl)c2o1)C(=O)O [Example A071, 5-[2-(8-chloro-4-oxo-chromen-2-yl)-5-(trifluoromethoxy)phenoxy]-2,2-dimethyl-pentanoic acid]",Clearance of Human microsome,[1],7.4 mL/min/kg
same,IC50,[2]; [3],6.46 µM
"O=C(COc1cc(C(F)(F)F)ccc1-c1cc(=O)c2cccc(Cl)c2o1)NC1CC(C(=O)O)C1 (centres unmarked) [Example A074, 3-[[2-[2-(8-chloro-4-oxo-chromen-2-yl)-5-(trifluoromethyl)phenoxy]acetyl]amino]cyclobutanecarboxylic acid]",Clearance of Human microsome,[1],6.15 mL/min/kg
same,IC50,[2]; [3],2.38 µM
"O=C(O)[C@H]1CCCN1C(=O)CCOc1cc(Br)ccc1-c1cc(=O)c2cccc(Cl)c2o1 [Example A075, (2R)-1-[3-[5-bromo-2-(8-chloro-4-oxo-chromen-2-yl)phenoxy]propanoyl]pyrrolidine-2-carboxylic acid]",Clearance of Human microsome,[1],6.15 mL/min/kg
same,IC50,[2]; [3],2.85 µM
"O=C(O)[C@@H]1CCCN1C(=O)CCOc1cc(Br)ccc1-c1cc(=O)c2cccc(Cl)c2o1 [Example A076, (2S)-1-[3-[5-bromo-2-(8-chloro-4-oxo-chromen-2-yl)phenoxy]propanoyl]pyrrolidine-2-carboxylic acid]",Clearance of Human microsome,[1],6.15 mL/min/kg
same,IC50,[2]; [3],14.1 µM
"Cc1ccc(-c2cc(=O)c3cccc(Cl)c3o2)c(OCC(=O)N2CCC[C@@H]2C(=O)O)c1 [Example A077, (2R)-1-[2-[2-(8-chloro-4-oxo-chromen-2-yl)-5-methyl-phenoxy]acetyl]pyrrolidine-2-carboxylic acid]",Clearance of Human microsome,[1],8.57 mL/min/kg
same,IC50,[2]; [3],9 µM
"Cc1ccc(-c2cc(=O)c3cccc(Cl)c3o2)c(OCC(=O)N2CCC[C@H]2C(=O)O)c1 [Example A078, (2S)-1-[2-[2-(8-chloro-4-oxo-chromen-2-yl)-5-methyl-phenoxy]acetyl]pyrrolidine-2-carboxylic acid]",Clearance of Human microsome,[1],6.15 mL/min/kg
same,IC50,[2]; [3],10.2 µM
"Cc1cc(-c2cc(=O)c3cccc(Cl)c3o2)c(OCC(=O)N2CCC[C@@H]2C(=O)O)cc1Br [Example A079, (2R)-1-[2-[5-bromo-2-(8-chloro-4-oxo-chromen-2-yl)-4-methyl-phenoxy]acetyl]pyrrolidine-2-carboxylic acid]",Clearance of Human microsome,[1],6.6 mL/min/kg
same,IC50,[2]; [3],19 µM
"Cc1cc(-c2cc(=O)c3cccc(Cl)c3o2)c(OCC(=O)N2CCC[C@H]2C(=O)O)cc1Br [Example A080, (2S)-1-[2-[5-bromo-2-(8-chloro-4-oxo-chromen-2-yl)-4-methyl-phenoxy]acetyl]pyrrolidine-2-carboxylic acid]",Clearance of Human microsome,[1],6.15 mL/min/kg
same,IC50,[2]; [3],17.5 µM
"O=C(O)[C@H]1CCCN1C(=O)COc1cc(C(F)(F)F)ccc1-c1cc(=O)c2cccc(Cl)c2o1 [Example A081, (2R)-1-[2-[2-(8-chloro-4-oxo-chromen-2-yl)-5-(trifluoromethyl)phenoxy]acetyl]pyrrolidine-2-carboxylic acid]",Clearance of Human microsome,[1],6.15 mL/min/kg
same,IC50,"[2]; read-out: IC50 (HBeAg level, HepDES19 primary screen assay), HepDES19 cells, 5 days compound incubation, HBeAg ELISA",0.26 µM
"COc1cc(OCCC(=O)NS(=O)(=O)C2CC2)c(-c2cc(=O)c3cccc(Cl)c3o2)cc1OC [Example A085, 3-[2-(8-chloro-4-oxo-chromen-2-yl)-4,5-dimethoxy-phenoxy]-N-cyclopropylsulfonyl-propanamide]",Clearance of Human microsome,[1],6.15 mL/min/kg
same,IC50,[2]; [3],4.92 µM
"O=C(COc1cc(C(F)(F)F)ccc1-c1cc(=O)c2cccc(Cl)c2o1)NCCO [Example A086, 2-[2-(8-chloro-4-oxo-chromen-2-yl)-5-(trifluoromethyl)phenoxy]-N-(2-hydroxyethyl)acetamide]",Clearance of Human microsome,[1],9.68 mL/min/kg
same,IC50,[2]; [3],1 µM
"Cc1cc(-c2cc(=O)c3cccc(Cl)c3o2)c(OCC(=O)N2CC[C@H](O)C2)cc1Br [Example A088, 2-[4-bromo-2-[2-[(3S)-3-hydroxypyrrolidin-1-yl]-2-oxo-ethoxy]-5-methyl-phenyl]-8-chloro-chromen-4-one]",Clearance of Human microsome,[1],7.09 mL/min/kg
same,IC50,[2]; [3],1.11 µM
"Cc1cc(-c2cc(=O)c3cccc(Cl)c3o2)c(OCC(=O)N2CC[C@@H](O)C2)cc1Br [Example A089, 2-[4-bromo-2-[2-[(3R)-3-hydroxypyrrolidin-1-yl]-2-oxo-ethoxy]-5-methyl-phenyl]-8-chloro-chromen-4-one]",Clearance of Human microsome,[1],6.69 mL/min/kg
same,IC50,[2]; [3],11.9 µM
"COc1cc(OCC(=O)NS(=O)(=O)C2CC2)c(-c2cc(=O)c3cccc(Cl)c3o2)cc1OC [Example A091, 2-[2-(8-chloro-4-oxo-chromen-2-yl)-4,5-dimethoxy-phenoxy]-N-cyclopropylsulfonyl-acetamide]",Clearance of Human microsome,[1],6.15 mL/min/kg
same,IC50,[2]; [3],0.888 µM
"Cc1ccc(-c2cc(=O)c3cccc(Cl)c3o2)c(OCC(=O)N2CCC[C@H]2C(=O)NS(C)(=O)=O)c1 [Example A093, (2S)-1-[2-[2-(8-chloro-4-oxo-chromen-2-yl)-5-methyl-phenoxy]acetyl]-N-methylsulfonyl-pyrrolidine-2-carboxamide]",Clearance of Human microsome,[1],6.15 mL/min/kg
same,IC50,[2]; [3],1.32 µM
"Cc1ccc(-c2cc(=O)c3cccc(Cl)c3o2)c(OCC(=O)N2CCC[C@@H]2C(=O)NS(C)(=O)=O)c1 [Example A094, (2R)-1-[2-[2-(8-chloro-4-oxo-chromen-2-yl)-5-methyl-phenoxy]acetyl]-N-methylsulfonyl-pyrrolidine-2-carboxamide]",Clearance of Human microsome,[1],6.15 mL/min/kg
same,IC50,[2]; [3],0.858 µM
